Reference: paper PMC6193938, “Characterization of a novel AICARFT inhibitor which potently elevates ZMP and has anti-tumor activity in murine models” (Scientific Reports, 2018)

How the values were obtained:
A9 murine tumors = assay: Pharmacodynamic response of tumor metabolites, single PO dose, standard chow; type: in vivo, mouse
Description: (§1) Figure 4 Pharmacodynamic response of ZMP (purple), AICAR (blue), […] (green), dUMP (red), AMP (aqua) & GMP (orange) metabolites in tumors following a single PO dose of LSN3213128 in athymic nude mice.

[1] = system: MDA-MB-231met2 xenografts; assay: as above; type: in vivo, mouse
Description: as §1

[2] = system: AMPK T172 phosphorylation in A9 tumors; assay: Western analysis of tumors; type: in vivo, mouse; details: 100 mg/kg x12 PO
AMPKA = assay: CEREP protein kinase assay; type: biochemical
DRAK1 = molecular target: T1, DRAK1 (Homo sapiens, UniProt Q9UEE5); assay: CEREP protein kinase assay; type: biochemical
T1 construct: purchased CEREP Panlabs (Eurofins)
T1 sequence (Q9UEE5 1-414): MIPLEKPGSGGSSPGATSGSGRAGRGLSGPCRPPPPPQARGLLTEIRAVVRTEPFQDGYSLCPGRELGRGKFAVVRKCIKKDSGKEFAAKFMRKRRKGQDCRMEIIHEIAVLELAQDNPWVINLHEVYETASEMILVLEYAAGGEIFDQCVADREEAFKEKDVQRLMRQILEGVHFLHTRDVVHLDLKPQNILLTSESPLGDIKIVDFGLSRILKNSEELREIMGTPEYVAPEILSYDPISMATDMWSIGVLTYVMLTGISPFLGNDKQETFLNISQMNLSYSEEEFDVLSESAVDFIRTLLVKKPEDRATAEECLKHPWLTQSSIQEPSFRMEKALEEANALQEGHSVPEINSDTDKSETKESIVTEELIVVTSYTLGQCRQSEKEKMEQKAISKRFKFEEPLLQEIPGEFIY

FAK = molecular target: T2, FAK (Homo sapiens, UniProt Q05397); assay: CEREP protein kinase assay; type: biochemical
T2 construct: purchased CEREP Panlabs (Eurofins)
T2 sequence (Q05397 whole entry): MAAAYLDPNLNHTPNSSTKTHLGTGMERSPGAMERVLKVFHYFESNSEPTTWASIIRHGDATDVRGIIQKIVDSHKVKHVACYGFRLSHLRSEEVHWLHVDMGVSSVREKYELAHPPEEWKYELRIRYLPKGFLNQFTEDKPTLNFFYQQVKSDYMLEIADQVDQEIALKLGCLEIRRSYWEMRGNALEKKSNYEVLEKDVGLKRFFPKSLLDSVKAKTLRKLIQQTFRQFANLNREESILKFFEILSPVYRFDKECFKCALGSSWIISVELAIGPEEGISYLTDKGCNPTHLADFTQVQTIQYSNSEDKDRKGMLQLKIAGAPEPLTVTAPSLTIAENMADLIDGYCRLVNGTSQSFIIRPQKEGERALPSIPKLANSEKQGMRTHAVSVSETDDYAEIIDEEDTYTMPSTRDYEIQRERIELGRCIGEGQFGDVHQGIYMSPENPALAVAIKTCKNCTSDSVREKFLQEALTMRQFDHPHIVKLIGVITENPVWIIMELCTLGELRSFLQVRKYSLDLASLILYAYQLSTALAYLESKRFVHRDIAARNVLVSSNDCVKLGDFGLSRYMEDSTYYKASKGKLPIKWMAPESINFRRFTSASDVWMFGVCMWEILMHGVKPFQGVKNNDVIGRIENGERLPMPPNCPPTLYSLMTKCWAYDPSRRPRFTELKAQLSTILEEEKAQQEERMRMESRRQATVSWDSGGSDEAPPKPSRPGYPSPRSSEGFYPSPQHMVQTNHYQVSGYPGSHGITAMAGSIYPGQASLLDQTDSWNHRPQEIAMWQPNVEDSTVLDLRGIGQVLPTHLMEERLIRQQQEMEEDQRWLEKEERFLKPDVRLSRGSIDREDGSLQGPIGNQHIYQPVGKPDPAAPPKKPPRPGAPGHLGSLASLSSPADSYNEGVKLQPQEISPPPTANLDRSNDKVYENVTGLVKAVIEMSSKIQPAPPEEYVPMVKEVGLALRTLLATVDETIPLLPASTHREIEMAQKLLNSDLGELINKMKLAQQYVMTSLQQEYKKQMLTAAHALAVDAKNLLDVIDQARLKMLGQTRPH

FGFR3 = molecular target: T3, FGFR3 (Homo sapiens, UniProt P22607); assay: CEREP protein kinase assay; type: biochemical
T3 construct: purchased CEREP Panlabs (Eurofins)

FLT3 = molecular target: T4, FLT3 (Homo sapiens, UniProt P36888); assay: CEREP protein kinase assay; type: biochemical
T4 construct: purchased CEREP Panlabs (Eurofins)
T4 sequence (P36888 27-993): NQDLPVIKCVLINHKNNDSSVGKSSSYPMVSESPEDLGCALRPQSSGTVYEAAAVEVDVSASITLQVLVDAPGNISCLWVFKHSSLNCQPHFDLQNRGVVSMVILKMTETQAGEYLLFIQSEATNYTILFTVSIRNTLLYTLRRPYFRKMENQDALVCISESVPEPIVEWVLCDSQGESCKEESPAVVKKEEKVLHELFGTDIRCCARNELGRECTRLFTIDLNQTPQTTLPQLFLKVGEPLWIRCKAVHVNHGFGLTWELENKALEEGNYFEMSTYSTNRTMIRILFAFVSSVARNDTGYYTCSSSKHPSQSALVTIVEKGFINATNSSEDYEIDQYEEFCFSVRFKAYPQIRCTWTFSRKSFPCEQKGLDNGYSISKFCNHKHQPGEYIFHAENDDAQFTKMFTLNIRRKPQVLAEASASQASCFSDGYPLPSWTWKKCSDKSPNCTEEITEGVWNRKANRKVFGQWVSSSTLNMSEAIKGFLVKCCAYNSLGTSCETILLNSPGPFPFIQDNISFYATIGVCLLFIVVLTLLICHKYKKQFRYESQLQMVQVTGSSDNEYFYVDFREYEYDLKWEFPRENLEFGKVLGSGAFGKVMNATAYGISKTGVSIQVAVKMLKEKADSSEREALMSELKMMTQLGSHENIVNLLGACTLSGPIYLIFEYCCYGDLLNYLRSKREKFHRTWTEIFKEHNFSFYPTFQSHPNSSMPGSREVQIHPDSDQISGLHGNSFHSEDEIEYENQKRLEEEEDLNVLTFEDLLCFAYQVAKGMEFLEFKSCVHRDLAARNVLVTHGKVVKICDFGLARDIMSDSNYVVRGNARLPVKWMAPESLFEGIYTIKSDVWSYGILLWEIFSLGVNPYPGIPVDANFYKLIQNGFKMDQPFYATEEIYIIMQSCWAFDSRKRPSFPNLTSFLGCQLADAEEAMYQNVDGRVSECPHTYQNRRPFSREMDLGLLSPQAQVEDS

FMS = molecular target: T5, FMS (Homo sapiens, UniProt P07333); assay: CEREP protein kinase assay; type: biochemical
T5 construct: purchased CEREP Panlabs (Eurofins)
T5 sequence (P07333 20-972): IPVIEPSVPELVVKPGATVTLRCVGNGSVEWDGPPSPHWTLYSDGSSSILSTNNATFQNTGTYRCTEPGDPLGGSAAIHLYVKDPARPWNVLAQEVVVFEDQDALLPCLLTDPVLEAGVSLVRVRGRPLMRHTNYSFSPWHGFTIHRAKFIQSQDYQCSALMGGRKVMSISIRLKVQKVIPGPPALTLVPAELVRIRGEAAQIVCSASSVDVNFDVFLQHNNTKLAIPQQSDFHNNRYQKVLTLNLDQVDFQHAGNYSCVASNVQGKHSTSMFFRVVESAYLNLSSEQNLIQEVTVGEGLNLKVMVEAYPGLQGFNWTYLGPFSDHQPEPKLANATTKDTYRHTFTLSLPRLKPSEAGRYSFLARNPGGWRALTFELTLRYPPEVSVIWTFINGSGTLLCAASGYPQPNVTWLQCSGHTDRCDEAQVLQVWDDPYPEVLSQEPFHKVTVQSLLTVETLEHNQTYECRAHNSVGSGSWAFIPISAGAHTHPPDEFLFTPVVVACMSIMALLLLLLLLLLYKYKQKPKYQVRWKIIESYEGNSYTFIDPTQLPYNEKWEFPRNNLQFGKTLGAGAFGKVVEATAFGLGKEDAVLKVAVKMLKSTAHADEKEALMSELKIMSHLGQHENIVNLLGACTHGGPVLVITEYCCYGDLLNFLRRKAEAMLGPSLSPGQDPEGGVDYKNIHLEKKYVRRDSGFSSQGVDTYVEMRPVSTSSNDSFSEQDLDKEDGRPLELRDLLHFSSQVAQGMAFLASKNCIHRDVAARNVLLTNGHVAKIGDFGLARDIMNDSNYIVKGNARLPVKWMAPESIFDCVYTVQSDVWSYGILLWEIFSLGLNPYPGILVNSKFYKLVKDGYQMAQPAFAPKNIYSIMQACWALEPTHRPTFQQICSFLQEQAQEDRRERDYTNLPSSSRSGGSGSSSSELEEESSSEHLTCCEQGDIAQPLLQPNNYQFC

P38a = molecular target: T6, P38a (Homo sapiens, UniProt Q16539); assay: CEREP protein kinase assay; type: biochemical
T6 construct: purchased CEREP Panlabs (Eurofins)
T6 sequence (Q16539 whole entry): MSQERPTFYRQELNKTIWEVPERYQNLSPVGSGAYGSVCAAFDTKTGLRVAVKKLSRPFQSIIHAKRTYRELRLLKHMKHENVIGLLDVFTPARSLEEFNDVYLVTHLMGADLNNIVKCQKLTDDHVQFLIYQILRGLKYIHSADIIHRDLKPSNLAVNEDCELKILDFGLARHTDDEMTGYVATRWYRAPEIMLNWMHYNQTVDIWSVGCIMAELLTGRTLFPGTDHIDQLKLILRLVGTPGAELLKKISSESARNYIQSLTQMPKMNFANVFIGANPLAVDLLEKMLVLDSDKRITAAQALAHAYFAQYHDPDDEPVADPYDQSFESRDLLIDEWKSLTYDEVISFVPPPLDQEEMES

PDGFRb = molecular target: T7, PDGFRb (Homo sapiens, UniProt P09619); assay: CEREP protein kinase assay; type: biochemical
T7 construct: purchased CEREP Panlabs (Eurofins)

PLK3 = molecular target: T8, PLK3 (Homo sapiens, UniProt Q9H4B4); assay: CEREP protein kinase assay; type: biochemical
T8 construct: purchased CEREP Panlabs (Eurofins)
T8 sequence (Q9H4B4 whole entry): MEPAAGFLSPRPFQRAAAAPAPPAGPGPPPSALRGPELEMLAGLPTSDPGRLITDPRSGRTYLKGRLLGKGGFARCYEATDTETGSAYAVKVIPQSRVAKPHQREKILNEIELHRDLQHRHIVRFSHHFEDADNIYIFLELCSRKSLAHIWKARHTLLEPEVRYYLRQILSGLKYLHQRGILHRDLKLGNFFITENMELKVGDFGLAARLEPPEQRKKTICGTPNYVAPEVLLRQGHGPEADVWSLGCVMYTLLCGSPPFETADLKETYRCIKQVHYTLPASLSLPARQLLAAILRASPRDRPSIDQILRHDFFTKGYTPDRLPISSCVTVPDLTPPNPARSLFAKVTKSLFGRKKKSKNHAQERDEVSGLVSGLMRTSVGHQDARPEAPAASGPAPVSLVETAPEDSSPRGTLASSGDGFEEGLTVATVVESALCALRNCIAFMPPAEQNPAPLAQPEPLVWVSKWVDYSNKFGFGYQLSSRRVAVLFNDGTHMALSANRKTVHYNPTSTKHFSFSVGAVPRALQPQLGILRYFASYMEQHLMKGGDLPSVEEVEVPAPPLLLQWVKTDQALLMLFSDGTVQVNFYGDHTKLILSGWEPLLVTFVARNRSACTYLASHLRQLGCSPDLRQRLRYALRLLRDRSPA

ROCK1 = molecular target: T9, ROCK1 (Homo sapiens, UniProt Q13464); assay: CEREP protein kinase assay; type: biochemical
T9 construct: purchased CEREP Panlabs (Eurofins)

RSK3 = molecular target: T10, RSK3 (Homo sapiens, UniProt Q15349); assay: CEREP protein kinase assay; type: biochemical
T10 construct: purchased CEREP Panlabs (Eurofins)
T10 sequence (Q15349 whole entry): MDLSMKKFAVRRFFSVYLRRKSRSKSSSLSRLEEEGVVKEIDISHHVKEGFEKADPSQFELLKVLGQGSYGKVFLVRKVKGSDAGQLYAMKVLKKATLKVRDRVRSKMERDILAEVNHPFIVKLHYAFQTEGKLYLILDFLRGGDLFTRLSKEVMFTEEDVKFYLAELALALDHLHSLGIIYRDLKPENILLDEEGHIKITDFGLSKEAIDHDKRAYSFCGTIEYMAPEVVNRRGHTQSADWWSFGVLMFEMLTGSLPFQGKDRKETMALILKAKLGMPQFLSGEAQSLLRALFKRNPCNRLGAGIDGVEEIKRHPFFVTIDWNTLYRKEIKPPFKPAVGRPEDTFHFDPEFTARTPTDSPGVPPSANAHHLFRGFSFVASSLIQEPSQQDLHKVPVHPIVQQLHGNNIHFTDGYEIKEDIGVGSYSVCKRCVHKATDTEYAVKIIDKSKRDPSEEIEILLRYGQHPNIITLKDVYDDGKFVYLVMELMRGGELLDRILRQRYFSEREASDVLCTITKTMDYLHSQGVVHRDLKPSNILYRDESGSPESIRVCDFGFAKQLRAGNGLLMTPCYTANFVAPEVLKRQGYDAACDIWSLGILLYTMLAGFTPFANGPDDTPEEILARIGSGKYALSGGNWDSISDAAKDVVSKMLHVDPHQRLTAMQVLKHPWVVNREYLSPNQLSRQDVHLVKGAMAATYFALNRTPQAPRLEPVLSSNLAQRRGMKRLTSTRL

WEE1 = molecular target: T11, WEE1 (Homo sapiens, UniProt P30291); assay: CEREP protein kinase assay; type: biochemical
T11 construct: purchased CEREP Panlabs (Eurofins)
T11 sequence (P30291 whole entry): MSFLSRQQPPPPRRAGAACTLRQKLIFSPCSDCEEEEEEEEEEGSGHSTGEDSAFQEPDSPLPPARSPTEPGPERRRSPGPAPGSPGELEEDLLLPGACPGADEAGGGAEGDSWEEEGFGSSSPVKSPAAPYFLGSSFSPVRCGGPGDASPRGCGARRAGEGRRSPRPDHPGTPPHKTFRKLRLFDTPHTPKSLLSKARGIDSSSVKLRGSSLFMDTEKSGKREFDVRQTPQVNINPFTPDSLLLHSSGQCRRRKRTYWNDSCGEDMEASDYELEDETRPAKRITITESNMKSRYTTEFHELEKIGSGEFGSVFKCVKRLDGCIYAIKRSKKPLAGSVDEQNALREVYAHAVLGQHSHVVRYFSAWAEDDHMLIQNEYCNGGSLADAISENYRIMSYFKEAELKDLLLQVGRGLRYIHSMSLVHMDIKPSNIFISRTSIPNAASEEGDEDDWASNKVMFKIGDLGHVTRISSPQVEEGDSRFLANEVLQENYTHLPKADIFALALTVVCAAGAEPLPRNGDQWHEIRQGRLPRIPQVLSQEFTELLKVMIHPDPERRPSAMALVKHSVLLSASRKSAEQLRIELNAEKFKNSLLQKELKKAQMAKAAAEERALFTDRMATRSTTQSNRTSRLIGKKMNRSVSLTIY

[3] = MDA-MB-231met2 tumors, 4 h post treatment

Question: Which results are given for `O=c1[nH]ccc2cc(F)c(NS(=O)(=O)c3ccc(N4CC[C@@H](O)C4)s3)cc12` [LSN3213128, N-(6-Fluoro-1-oxo-1,2-dihydroisoquinolin-7-yl)-5-[(3R)-3-hydroxypyrrolidin-1-yl]thiophene-2-sulfonamide]?
Answer: dose after which tumor ZMP response appeared to saturate (A9 murine tumors; nude mice on standard chow, 4 h post PO dose): 30 mg/kg; tumor dUMP levels (A9 murine tumors; standard chow, 4 h, up to 100 mg/kg): did not rise; change in tumor ZMP [1, 3]: 15 fold; change in tumor purine levels (AMP and GMP) [1, 3]: twofold; dose at which tumor ZMP response appeared to saturate ([1]; MDA-MB-231met2 xenografts, nude mice on standard chow, 4 h post PO dose): 10 mg/kg; tumor dUMP levels ([1]; MDA-MB-231met2 xenografts, standard chow, 4 h, up to 100 mg/kg): did not rise; AMPK T172 phosphorylation levels in vivo [2]: showed no change; % Inhibition (AMPKA; @ 0.2 uM): -3.69 (26.6, n=2) %; % Inhibition (AMPKA; @ 2 uM): 9.14 (16.7, n=2) %; % Inhibition (AMPKA; @ 20 uM): 9.08 (3.34, n=2) %; inhibition at 0.2 µM (DRAK1; @ 0.2 uM): 4.41%; inhibition at 2 µM (DRAK1; @ 2 uM): 13.9%; inhibition at 20 µM (DRAK1; @ 20 uM): 20.3%; inhibition at 0.2 µM (FAK; @ 0.2 uM): -12.7%; inhibition at 2 µM (FAK; @ 2 uM): -4.84%; inhibition at 20 µM (FAK; @ 20 uM): 40.1%; inhibition at 0.2 µM (FGFR3; @ 0.2 uM): 3.62%; inhibition at 2 µM (FGFR3; @ 2 uM): 13.2%; inhibition at 20 µM (FGFR3; @ 20 uM): 47%; inhibition at 0.2 µM (FLT3; @ 0.2 uM): -12.1%; inhibition at 2 µM (FLT3; @ 2 uM): 10.7%; inhibition at 20 µM (FLT3; @ 20 uM): 53.2%; inhibition at 0.2 µM (FMS; @ 0.2 uM): 2.06%; inhibition at 2 µM (FMS; @ 2 uM): 19.2%; inhibition at 20 µM (FMS; @ 20 uM): 48.4%; inhibition at 0.2 µM (P38a; @ 0.2 uM): -2.24%; inhibition at 2 µM (P38a; @ 2 uM): -2.52%; inhibition at 20 µM (P38a; @ 20 uM): 32.3%; inhibition at 0.2 µM (PDGFRb; @ 0.2 uM): -85.9%; inhibition at 2 µM (PDGFRb; @ 2 uM): -63.2%; inhibition at 20 µM (PDGFRb; @ 20 uM): -71%; inhibition at 0.2 µM (PLK3; @ 0.2 uM): 13.4%; inhibition at 2 µM (PLK3; @ 2 uM): 12%; inhibition at 20 µM (PLK3; @ 20 uM): 60.5%; inhibition at 0.2 µM (ROCK1; @ 0.2 uM): 7.67%; inhibition at 2 µM (ROCK1; @ 2 uM): 10.9%; inhibition at 20 µM (ROCK1; @ 20 uM): 21.3%; inhibition at 0.2 µM (RSK3; @ 0.2 uM): -5.85%; inhibition at 2 µM (RSK3; @ 2 uM): -1.32%; inhibition at 20 µM (RSK3; @ 20 uM): 9.07%; inhibition at 0.2 µM (WEE1; @ 0.2 uM): 1.15%; inhibition at 2 µM (WEE1; @ 2 uM): 7.31%; inhibition at 20 µM (WEE1; @ 20 uM): 14.2%
